According to ChEMBL document CHEMBL1201862, “PubChem BioAssay data set” (2004):
Active and inactive are the calls of the source.

Experiments:
Bcl-2-like protein 10 = Bcl-2-like protein 10 (Homo sapiens, UniProt Q9HD36); assay: Concentration-response of Bcl-B inhibitors by biochemical FP with TR3 (AID 1243); type: functional
[1] = Luminescence Cell-Based Dose Response HTS to Identify Inhibitors of 5'UTR Stem-Loop Driven Prion Protein mRNA Translation in H4 Neuroglioblastoma Cells. [Related pubchem assays: 1827 (Project Summary), 1813 (Primary HTS)]; type: functional
[2] = alpha-synuclein stem-loop luciferase translation blockers – H4 neuroglioma cells, luminescence, confirmation (AID 1988); type: functional, cell-based
[3] = molecular target: Scavenger receptor class B member 1 (Mus musculus, UniProt Q61009); assay: mouse SR-BI DiI-HDL uptake blockers – ldlA[mSR-BI] cells, fluorescence, cherry pick, dose response (AID 493194); type: functional, cell-based;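 note: cellular uptake of fluorescent DiI-labeled HDL measured as cell fluorescence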
[4] = luciferase reporter signal suppression in cells – H4 neuroglioma cells, luminescence, dose response (AID 1990); type: functional, cell-based
[5] = bead-based luminescence quenchers, dual-tagged ARNT – biochemical, AlphaScreen, cherry-pick, artefact control for ARNT-TACC3 interaction inhibitor project, dose response (AID 651705); type: functional;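 note: AlphaScreen bead proximity signal that flags compounds interfering with the detection technology; potency reflects signal decrease which marks the compound as an assay artifact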
Nonstructural protein 1 = Nonstructural protein 1 (Influenza A virus, UniProt Q194T2); type: functional, Influenza A virus (A/California/07/2009(H1N1))
[6] = viability loss of HPDE-C7K cells – cell-based, fluorescence, HTS, primary screen (AID 431); type: functional; details: Homo sapiens
[7] = mitochondrial function rescue without frataxin homolog – Friedreich's ataxia, plus single-dose screen, dose response (AID 1465); type: functional;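 note: yeast depleted of Yfh1p frataxin homolog grown on glycerol needing respiration; WST-1 tetrazolium dye reduction as measure of cellular dehydrogenase metabolic activity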
cells [8] = type: functional, cell-based
cells [9] = type: functional, cell-based; remark: listed apart in the source
INS1 = assay: INS-1E survival protection against cytokine death – cell-based, luminescence, retest, dose response (AID 449756); type: functional; details: Rattus norvegicus;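 note: cell death triggered by IL-1 beta plus TNF-alpha plus IFN-gamma mixture; protective hits raise ATP signal compared with cytokine alone wells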
[10] = HPDE-C7 pancreatic duct cell viability loss – fluorescence, HTS (AID 430); type: functional, cell-based; details: Homo sapiens
[11] = molecular target: 5-hydroxytryptamine receptor 1E (Homo sapiens, UniProt P28566); assay: Counterscreen assay for S1P3 antagonists: Dose response cell-based high throughput screening assay to identify antagonists of the 5-Hydroxytryptamine Receptor Subtype 1E (5HT1E). [Related pubchem assays: 1429, 485 ]; type: functional
[12] = molecular target: Sphingosine 1-phosphate receptor 3 (Homo sapiens, UniProt Q99500); assay: Dose response cell-based high throughput screening assay for antagonists of the Sphingosine 1-Phosphate Receptor 3 (S1P3). [Related pubchem assays: 1429, 485 ]; type: functional
[13] = Trypanosoma cruzi growth suppression in host cells – NIH3T3 host cells, beta-gal luminescence, confirmation (AID 2044); type: functional, cell-based;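 note: intracellular parasites grown in NIH/3T3 mouse fibroblasts as host cells; luminescent beta-galactosidase reporter signal from transgenic T. cruzi replicating inside host cells; inhibitors lower the luminescence signal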
[14] = NIH3T3 cell viability loss – ATP luminescence, mouse fibroblasts, counter-screen, dose response (AID 2010); type: functional, cell-based;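 note: cells exposed to compound for about 90 hours before reading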
Vero = assay: Vero cell viability after compound exposure – synthesized analogs, set II, cytotoxicity control for West Nile virus antiviral project, SAR follow-up (AID 2402); type: functional; details: Chlorocebus sabaeus
[15] = A Cell Based Assay for the Identification of Probe candidate Compounds with Anti- Venezuelan Equine Encephalitis virus. [Related pubchem assays: 2409, 2419, 1621, 2238, 2405, 2024, 2065, 2402, 2414, 1635, 1650, 2244 ]; type: functional
[16] = molecular target: Dual specificity protein phosphatase 6 (Rattus norvegicus, UniProt Q64346); assay: inhibition of rat DUSP6 enzyme activity – biochemical, in vitro, primary screen (AID 425)
[17] = Luminescence Cell-Based Dose-Confimation HTS to Identify Inhibitors of 5'UTR Stem-Loop Driven Alpha-Synuclein mRNA Translation in H4 Neuroglioblastoma Cells. [Related pubchem assays: 1827 (Project Summary), 1813 (Primary HTS)]; type: functional
[18] = molecular target: Glyceraldehyde-3-phosphate dehydrogenase (Homo sapiens, UniProt P04406)
Bcl-2-related protein A1 [19] = molecular target: T1, Bcl-2-related protein A1 (Mus musculus, UniProt Q07440); assay: small-molecule antagonists of Bfl-1/BH3 interaction – biochemical, TR-FRET, mouse Bfl-1, confirmation (AID 621);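 note: TR-FRET binding of GST-Bfl-1 to FITC-labelled Bid peptide via terbium antibody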
T1 sequence (Q07440 whole entry): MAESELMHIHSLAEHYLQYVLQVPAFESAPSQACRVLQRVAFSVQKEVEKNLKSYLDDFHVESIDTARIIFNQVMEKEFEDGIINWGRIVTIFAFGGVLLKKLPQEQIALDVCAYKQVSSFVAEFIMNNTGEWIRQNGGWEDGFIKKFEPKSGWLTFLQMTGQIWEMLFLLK

Bcl-2-related protein A1 [20] = molecular target: T1, Bcl-2-related protein A1; assay: Bfl-1 binding inhibitors, SAR follow-up, biochemical, fluorescence polarization (AID 1070)

Sequence of Dual specificity protein phosphatase 6 (Q64346 whole entry): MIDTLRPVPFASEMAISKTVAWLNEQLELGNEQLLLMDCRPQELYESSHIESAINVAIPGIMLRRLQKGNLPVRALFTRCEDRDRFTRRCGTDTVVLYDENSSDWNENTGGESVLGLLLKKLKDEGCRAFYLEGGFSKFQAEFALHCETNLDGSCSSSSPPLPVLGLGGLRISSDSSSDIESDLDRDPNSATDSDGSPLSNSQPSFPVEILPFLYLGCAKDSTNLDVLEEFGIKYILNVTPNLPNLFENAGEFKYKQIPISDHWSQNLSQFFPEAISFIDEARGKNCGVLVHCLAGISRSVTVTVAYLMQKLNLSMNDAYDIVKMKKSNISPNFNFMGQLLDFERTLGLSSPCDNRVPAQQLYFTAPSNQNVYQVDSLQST
Sequence of Scavenger receptor class B member 1 (Q61009 whole entry): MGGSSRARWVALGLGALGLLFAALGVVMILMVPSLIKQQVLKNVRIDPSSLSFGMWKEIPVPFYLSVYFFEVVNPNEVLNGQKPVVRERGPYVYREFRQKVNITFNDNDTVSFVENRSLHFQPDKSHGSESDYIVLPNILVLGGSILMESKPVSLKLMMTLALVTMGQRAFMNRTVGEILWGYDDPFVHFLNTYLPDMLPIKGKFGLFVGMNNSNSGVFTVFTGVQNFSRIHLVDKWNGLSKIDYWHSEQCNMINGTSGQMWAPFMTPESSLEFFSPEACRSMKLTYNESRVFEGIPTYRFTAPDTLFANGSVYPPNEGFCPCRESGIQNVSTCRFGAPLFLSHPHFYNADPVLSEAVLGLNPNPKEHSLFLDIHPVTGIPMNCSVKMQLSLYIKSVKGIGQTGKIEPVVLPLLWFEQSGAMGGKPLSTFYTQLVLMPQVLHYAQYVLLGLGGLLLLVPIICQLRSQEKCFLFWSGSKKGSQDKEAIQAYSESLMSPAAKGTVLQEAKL
Sequence of Nonstructural protein 1 (Q194T2 whole entry): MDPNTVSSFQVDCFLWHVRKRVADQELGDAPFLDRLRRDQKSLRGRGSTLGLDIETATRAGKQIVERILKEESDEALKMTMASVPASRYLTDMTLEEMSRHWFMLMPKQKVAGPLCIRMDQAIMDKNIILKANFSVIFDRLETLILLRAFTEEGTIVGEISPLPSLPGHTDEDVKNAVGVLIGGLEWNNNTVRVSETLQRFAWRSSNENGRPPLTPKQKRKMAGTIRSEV
Sequence of 5-hydroxytryptamine receptor 1E (P28566 whole entry): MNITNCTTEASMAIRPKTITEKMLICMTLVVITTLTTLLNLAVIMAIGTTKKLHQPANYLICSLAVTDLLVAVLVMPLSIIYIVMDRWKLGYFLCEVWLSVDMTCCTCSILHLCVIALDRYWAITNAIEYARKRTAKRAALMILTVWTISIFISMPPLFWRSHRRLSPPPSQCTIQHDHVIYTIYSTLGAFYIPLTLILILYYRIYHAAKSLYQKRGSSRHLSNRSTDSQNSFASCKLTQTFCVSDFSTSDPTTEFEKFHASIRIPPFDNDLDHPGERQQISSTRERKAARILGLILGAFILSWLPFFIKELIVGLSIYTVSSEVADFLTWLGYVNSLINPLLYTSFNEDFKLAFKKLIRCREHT
Sequence of Sphingosine 1-phosphate receptor 3 (Q99500 whole entry): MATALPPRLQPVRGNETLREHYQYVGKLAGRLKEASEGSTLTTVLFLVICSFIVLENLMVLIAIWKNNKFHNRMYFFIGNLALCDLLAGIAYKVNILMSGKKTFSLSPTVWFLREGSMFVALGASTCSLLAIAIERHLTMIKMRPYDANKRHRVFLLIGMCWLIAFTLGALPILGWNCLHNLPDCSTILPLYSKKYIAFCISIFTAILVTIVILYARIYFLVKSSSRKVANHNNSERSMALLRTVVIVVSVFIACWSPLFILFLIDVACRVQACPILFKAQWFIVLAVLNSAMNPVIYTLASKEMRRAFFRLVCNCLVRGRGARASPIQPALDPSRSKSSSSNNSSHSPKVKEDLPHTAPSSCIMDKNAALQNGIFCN
Sequence of Glyceraldehyde-3-phosphate dehydrogenase (P04406 whole entry): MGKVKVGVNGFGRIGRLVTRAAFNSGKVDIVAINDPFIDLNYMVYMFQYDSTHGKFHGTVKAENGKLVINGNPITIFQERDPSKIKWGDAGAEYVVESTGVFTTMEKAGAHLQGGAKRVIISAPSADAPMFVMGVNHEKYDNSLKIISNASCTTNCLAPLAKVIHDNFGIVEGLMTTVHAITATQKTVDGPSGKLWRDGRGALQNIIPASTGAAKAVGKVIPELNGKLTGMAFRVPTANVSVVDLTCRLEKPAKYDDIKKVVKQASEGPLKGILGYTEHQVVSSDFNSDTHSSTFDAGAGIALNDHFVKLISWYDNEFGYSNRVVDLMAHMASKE
Sequence of Bcl-2-like protein 10 (Q9HD36 whole entry): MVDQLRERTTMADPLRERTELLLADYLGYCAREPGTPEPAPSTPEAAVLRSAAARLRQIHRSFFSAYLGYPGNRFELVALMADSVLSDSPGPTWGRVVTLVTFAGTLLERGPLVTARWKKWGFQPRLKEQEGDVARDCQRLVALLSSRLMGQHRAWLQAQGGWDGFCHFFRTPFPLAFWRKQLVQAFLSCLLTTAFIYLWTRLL

Cc1c(Cl)ccc2c1NC(C(=O)O)C1CC=CC21 (stereo not given)
EC50 (Bcl-2-like protein 10): 5.21 µM (active)

O=C(Nc1nc(NC(=O)c2ccco2)n(-c2ccccc2)n1)c1ccccc1
EC50 [1]: 5.2 µM (active) | EC50 [2]: 7.85 µM (active) | AC50 [3]: 13.4 µM (active) | EC50 [4]: 10 µM (active) | AC50 [5]: 127 µM (active) | IC50 (Nonstructural protein 1): 85.9 µM (active) | EC50 [6]: 6.1 µM (active) | EC50 [7]: > 100 µM (active) | EC50 (cells [8]): > 350 µM (not active) | EC50 (cells [9]): > 350 µM (not active) | AC50 (INS1): 2.96 µM (active) | EC50 [10]: 3.73 µM (active)

O=C(Nc1ccc(OC(F)F)c(Cl)c1)C(c1ccccc1)c1ccccc1
IC50 [11]: 1.25 µM (active) | IC50 [12]: 4.07 µM (active) | EC50 [13]: 1.29 µM (active) | EC50 [14]: > 60 µM (inconclusive) | AC50 (INS1): 8.95 µM (active)

COc1ccc(Cn2nc(C)cc2OC(=O)c2c(F)cccc2F)cc1
CC50 (Vero): > 200 µM (active) | IC50 [15]: > 133 µM (active)

CCOC(=O)c1cc2sccc2n1Cc1ccccc1
IC50 [16]: > 100 µM (not active)

CC(C)c1ccc(-n2nnnc2SCc2nc(N)nc(N)n2)cc1
EC50 [17]: > 100 µM (not active)

O=C1C(Cl)=C(N2CCN(c3ccccc3)CC2)C(=O)N1c1ccc(Cl)c(Cl)c1
IC50 [18]: > 100 µM (not active) | IC50 (Bcl-2-related protein A1 [19]): 4.13 µM (active) | IC50 (Bcl-2-related protein A1 [20]): 4.95 µM (active)
